# Measurements published in ChEMBL document CHEMBL1201862, “PubChem BioAssay data set” (2004).
#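 Briefly, cells in 96-well plates were exposed to five compound concentrations for 48 h, and endpoints were estimated by linear interpolation. At the GI50, growth is halved.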 Activity calls are given as the source filed them. Cut-off read from the data, not from the text of the source: active = GI50 up to about 1.1 µM and inactive = higher.
# What was measured:
# Experiment in all cases: inhibition of tumour cell growth, NCI panel, 48 h
# SNB-75 = test system: SNB-75
# SF-268 = test system: SF-268
# SF-539 = test system: SF-539
# CCRF-CEM = test system: CCRF-CEM
# CAKI-1 = test system: CAKI-1
# IGROV-1 = test system: IGROV-1
# A549 = test system: A549
# SW-620 = test system: SW-620
# NCI-H23 = test system: NCI-H23
# HCC 2998 = test system: HCC 2998
# SK-MEL-28 = test system: SK-MEL-28
# NCI-H460 = test system: NCI-H460
# SR = test system: SR
# MDA-MB-231 = test system: MDA-MB-231
# LOX IMVI = test system: LOX IMVI
# OVCAR-5 = test system: OVCAR-5
# SK-MEL-2 = test system: SK-MEL-2
# OVCAR-4 = test system: OVCAR-4
# HL-60 = test system: HL-60
# 786-0 = test system: 786-0
Compound,GI50 (SNB-75),GI50 (SF-268),GI50 (SF-539),GI50 (CCRF-CEM),GI50 (CAKI-1),GI50 (IGROV-1),GI50 (A549),GI50 (SW-620),GI50 (NCI-H23),GI50 (HCC 2998),GI50 (SK-MEL-28),GI50 (NCI-H460),GI50 (SR),GI50 (MDA-MB-231),GI50 (LOX IMVI),GI50 (OVCAR-5),GI50 (SK-MEL-2),GI50 (OVCAR-4),GI50 (HL-60),GI50 (786-0)
CC(=O)OC(C)c1cc2c(s1)C(=O)c1sccc1C2=O (stereo not given),1.29 µM (inactive),0.989 µM (active),0.268 µM (active),2.76 µM (inactive),3.14 µM (inactive),2.02 µM (inactive),1.17 µM (inactive),0.714 µM (active),0.221 µM (active),1.99 µM (inactive),0.916 µM (active),1.06 µM (active),0.51 µM (active),1.34 µM (inactive),0.446 µM (active),1.73 µM (inactive),0.504 µM (active),1.96 µM (inactive),1.74 µM (inactive),4.45 µM (inactive)
O=C1NC2(CCNCC2)Oc2ccccc21,> 100 µM (inactive),> 100 µM (inactive),> 100 µM (inactive),> 100 µM (inactive),> 100 µM (inactive),> 100 µM (inactive),> 100 µM (inactive),> 100 µM (inactive),> 100 µM (inactive),> 100 µM (inactive),> 100 µM (inactive),> 100 µM (inactive),> 100 µM (inactive),> 100 µM (inactive),> 100 µM (inactive),> 100 µM (inactive),> 100 µM (inactive),> 100 µM (inactive),> 100 µM (inactive),> 100 µM (inactive)
COP(=O)(Cc1ccccc1)Cc1ccccc1,> 100 µM (inactive),> 100 µM (inactive),> 100 µM (inactive),> 100 µM (inactive),> 100 µM (inactive),> 100 µM (inactive),> 100 µM (inactive),> 100 µM (inactive),> 100 µM (inactive),> 100 µM (inactive),> 100 µM (inactive),> 100 µM (inactive),> 100 µM (inactive),> 100 µM (inactive),> 100 µM (inactive),> 100 µM (inactive),> 100 µM (inactive),> 100 µM (inactive),> 100 µM (inactive),> 100 µM (inactive)
CC1=C(Br)C(=O)c2c(O)ccc(O)c2C1=O,1.51 µM (inactive),1.99 µM (inactive),0.646 µM (active),0.0183 µM (active),0.282 µM (active),1.59 µM (inactive),1.89 µM (inactive),0.163 µM (active),0.938 µM (active),1.75 µM (inactive),0.875 µM (active),1.26 µM (inactive),0.207 µM (active),1.26 µM (inactive),0.55 µM (active),1.66 µM (inactive),5.83 µM (inactive),0.857 µM (active),0.0306 µM (active),0.19 µM (active)
CCOC(=O)c1ccc(/N=C2\SC(=S)N(c3ccc(F)cc3)\C2=N/c2ccc(C(=O)OCC)cc2)cc1,20.2 µM (inactive),7.4 µM (inactive),20 µM (inactive),6.95 µM (inactive),21.9 µM (inactive),14.4 µM (inactive),41 µM (inactive),12.5 µM (inactive),17.8 µM (inactive),40.7 µM (inactive),13.2 µM (inactive),51.9 µM (inactive),2.2 µM (inactive),7.8 µM (inactive),5.73 µM (inactive),23 µM (inactive),12.9 µM (inactive),12.1 µM (inactive),5.78 µM (inactive),17.1 µM (inactive)
CC1CC2=C(C1)C(C1(C)C(=O)CC3C(C1=O)C3(C)C)C(C)C2=O (stereo not given),> 100 µM (inactive),> 100 µM (inactive),> 100 µM (inactive),> 100 µM (inactive),> 100 µM (inactive),> 100 µM (inactive),> 100 µM (inactive),> 100 µM (inactive),> 100 µM (inactive),> 100 µM (inactive),> 100 µM (inactive),> 100 µM (inactive),> 100 µM (inactive),> 100 µM (inactive),> 100 µM (inactive),> 100 µM (inactive),> 100 µM (inactive),> 100 µM (inactive),> 100 µM (inactive),> 100 µM (inactive)
CC1CN=C(N(C)C(=O)Nc2ccc(Cl)cc2)S1 (stereo not given),> 100 µM (inactive),41.5 µM (inactive),10.6 µM (inactive),> 10 µM (inactive),3.64 µM (inactive),4.56 µM (inactive),16.7 µM (inactive),20.4 µM (inactive),21.3 µM (inactive),4.29 µM (inactive),16.5 µM (inactive),3.77 µM (inactive),12.3 µM (inactive),32.1 µM (inactive),20.2 µM (inactive),4.47 µM (inactive),15.4 µM (inactive),65.2 µM (inactive),15.7 µM (inactive),19.5 µM (inactive)
O=C(CCCN1CCC2(CC1)OC(=O)N(c1ccccc1)C2=O)c1ccccc1,> 100 µM (inactive),> 100 µM (inactive),> 100 µM (inactive),> 100 µM (inactive),> 100 µM (inactive),> 100 µM (inactive),> 100 µM (inactive),> 100 µM (inactive),> 100 µM (inactive),> 100 µM (inactive),> 100 µM (inactive),> 100 µM (inactive),> 100 µM (inactive),35.5 µM (inactive),> 100 µM (inactive),> 100 µM (inactive),> 100 µM (inactive),> 100 µM (inactive),> 100 µM (inactive),> 100 µM (inactive)
CC1=C(C(=O)Nc2ccccc2)C2(CCCCC2)C(C#N)=C(SCC(=O)Nc2ccc(Br)cc2)N1,8.51 µM (inactive),2.2 µM (inactive),13.3 µM (inactive),1.46 µM (inactive),4.76 µM (inactive),3.34 µM (inactive),3.77 µM (inactive),5.43 µM (inactive),4.1 µM (inactive),2.54 µM (inactive),5.73 µM (inactive),3.22 µM (inactive),2.31 µM (inactive),7.33 µM (inactive),3.43 µM (inactive),4.99 µM (inactive),2.54 µM (inactive),4.91 µM (inactive),3.18 µM (inactive),4.1 µM (inactive)
Cc1ccc(C)c(C2NC(=O)c3ccccc3N2)c1 (stereo not given),0.423 µM (active),3.27 µM (inactive),0.587 µM (active),0.753 µM (active),3.27 µM (inactive),1.13 µM (inactive),1.79 µM (inactive),0.472 µM (active),6.04 µM (inactive),2.8 µM (inactive),12.5 µM (inactive),0.916 µM (active),0.555 µM (active),10.3 µM (inactive),2.05 µM (inactive),6.18 µM (inactive),1.29 µM (inactive),6.27 µM (inactive),0.118 µM (active),1.76 µM (inactive)
CC1=CC(=O)c2ccc(C)cc2C1=O [CHIMAPHILIN],> 10 µM (inactive),14.3 µM (inactive),15.6 µM (inactive),2.86 µM (inactive),5.78 µM (inactive),15.1 µM (inactive),15.9 µM (inactive),11.8 µM (inactive),5.22 µM (inactive),19.8 µM (inactive),6.82 µM (inactive),14.2 µM (inactive),3.4 µM (inactive),11.6 µM (inactive),5.09 µM (inactive),19.9 µM (inactive),16.2 µM (inactive),16.7 µM (inactive),1.98 µM (inactive),19.7 µM (inactive)
COc1ccc2nc3cccc([N+](=O)[O-])c3c(NCCO)c2c1,0.0942 µM (active),0.0157 µM (active),0.0182 µM (active),0.0479 µM (active),0.0183 µM (active),0.162 µM (active),0.0198 µM (active),0.00164 µM (active),0.0219 µM (active),0.0146 µM (active),0.0277 µM (active),0.00378 µM (active),0.001 µM (active),0.0138 µM (active),0.00149 µM (active),0.0203 µM (active),0.0175 µM (active),0.0386 µM (active),0.0148 µM (active),0.0112 µM (active)
O=C1CC2(CCNCC2)C(=O)N1N1CCCCC1,> 100 µM (inactive),> 100 µM (inactive),> 100 µM (inactive),> 100 µM (inactive),> 100 µM (inactive),> 100 µM (inactive),> 100 µM (inactive),> 100 µM (inactive),> 100 µM (inactive),> 100 µM (inactive),> 100 µM (inactive),> 100 µM (inactive),> 100 µM (inactive),> 100 µM (inactive),> 100 µM (inactive),> 100 µM (inactive),> 100 µM (inactive),> 100 µM (inactive),> 100 µM (inactive),> 100 µM (inactive)
